Reference: US5208223A, “Phosphocholine derivative inhibitors of phospholipase A2” (American Cyanamid Company, priority 1992, dated 1993)
Several values for one entry are separate records, joined by “and”; a condition that tells them apart may be missing. Equal entries are not always repeated. Structures can show the parent of a compound that is named as a salt.

Experiments:
Type in all cases: biochemical
[1] = biological target: T1, porcine pancreatic PLA2 (Sus scrofa, UniProt P00592); assay: MHPLA2 assay: in vitro porcine pancreatic phospholipase A2, mixed micelle design, [s]=10 μm; conditions: for inhibition at 25 µg/mL / % Inh.: dose 25 μ/ml; for inhibition at 25 µg/mL / inhibition at 10 µg/mL: subs. con. 10, read-out: % Inh.; for inhibition at 10 µg/mL: dose 10 μ/ml; for inhibition at 20 µg/mL: dose 20 μ/ml; for inhibition at 20 µg/mL / % Inh.: subs. con. 10
T1 construct: purchased Sigma
T1 sequence (P00592 23-146): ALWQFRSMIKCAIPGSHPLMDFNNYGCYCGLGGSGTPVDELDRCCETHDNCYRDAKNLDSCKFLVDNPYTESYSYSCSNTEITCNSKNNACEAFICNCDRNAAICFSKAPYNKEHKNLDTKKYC
Procedure: (§1) Phospholipase A2 activity was measured by a radiochemical assay in which labeled synthetic phosphatidylcholine substrate is converted by porcine pancreatic PLA2 to free radiolabeled arachidonate and lyso PC. Radiolabeled arachidonate is extracted from the reaction mixture and separated from unreacted substrate by column chromatography or TLC. Radioactivity (cpm) in samples is quantitated by liquid scintillation counting. Specific details are as follows:
(§2) Labeled substrate(1-stearyl-2-^3 H-arachidonylphosphatidylcholine; Amersham, sp. act. 84 (uCi/mmole, 0.025 to 0.2 uCi/assay tube and unlabeled substrates (Avanti), in sufficient quantity to give 20,000 cpm to 50,000 cpm and 10 μM to 1,000 μM final concentration/assay tube are dried under a stream of nitrogen. The PLA2 and mPLA2 assays utilized a […] substrate concentration. The mHPLA2 and HPLA2 assays (vida infra) utilized a 10 μM substrate concentration and the SmPLA2 assay utilized a substrate concentration ranging from 100 to 1000 μm. The substrate is then redissolved in 0.1M tris-HCl buffer, pH 9.0 containing 10 mM CaCl2 and 10 mM Na taurocholate detergent. The mixture is sonicated in a Kontes Sonifier to yield a homogeneous dispersion. The "mixed" micellar substrate is clear. An aliquot is reserved for a cpm count (total substrate). The total reaction volume is 500 μL; siliconized glassware or plasticware is used throughout. Enzyme (Sigma, sp. act.>690 U/mg protein and preferably 900 U/mg protein) is diluted 1:750 or 1:1000 in 0.1M tris-HCl buffer, pH 9.0 (without Ca^++ and detergent). Enzyme dilution depends on substrate concentration and required enzyme concentration.
(§3) The substrate in buffer is kept on ice until the reaction is started. The reaction is started by adding 10 μL of diluted enzyme solution to 490 μL of micellar substrate solution. Samples are incubated in a 37° C. water bath for 15 minutes with gentle mixing. The reaction is terminated by the addition of 100 μL of 1M fresh trichloroacetic acid (TCA) solution and chilling the tubes on ice for 30 minutes.
(§4) Samples (600 μL) are extracted with 3 ml CHCl3 /MeOH (2:1) for thin layer chromatography or in hexane/ether (9:1) for column chromatography. The phases are separated by gentle centrifugation at 700 rpm×5'. The organic phase is recovered.
(§5) Labeled arachidonate extracted with CHCl3 /MeOH is separated on silica gel G TLC plates (Analtech). Twenty μL of a 2 mg/ml internal standard solution of arachidonic acid (Sigma) is combined with 2-3 ml of the organic phase. The entire mixture is dried under nitrogen and redissolved in 50 μL of CHCl3 /MeOH (2:1). A 20 μL sample is counted in 10 ml of Beckman Redi-solv HP and spotted on silica gel G plates. The solvent system used to develop the plate is CHCl3 /MeOH/13.5N NH3 /H2 O (70:30:4:1). Plates are developed in a glass chamber for 1-11/2 hours, air dried, and the spots visualized in an iodine vapor chamber. Standards of phosphatidylcholine, lyso PC, and arachidonic acid (Sigma) are made as 2 mg/ml stocks in CHCl3 /MeOH (2:1) and spotted on plates. Spots corresponding to arachidonate and phospholipid are scraped and counted in 10 ml Beckman Redi-Solv HP scintillation fluid.
(§6) Samples are extracted with hexane/ether and the upper organic phase recovered. An aliquot is applied to a Silicar CC4 (Malincrodt) column. Columns are prepared using 1 ml of a 1:1 slurry of silicar CC4 in hexane/ether in a Pasteur pipet (approx. 2 cm height). Columns are rinsed with 500 μL of hexane/ether before adding the sample (300-600 μL) to the column. Columns are eluted with a total of 6 ml of hexane/ether. The 6 ml sample is counted in 10 ml of Beckman Redi-Solv HP scintillation fluid.
(§7) or the phospholipase A2 assay, compounds are prepared as 1 mg/ml stock solutions in MeOH and diluted appropriately in PBS. […]

[2] = biological target: T1, porcine pancreatic PLA2; assay: PLA2 assay: in vitro porcine pancreatic phospholipase A2, preincubation of drug+enzyme, substrate 2 nM; conditions: subs. con. 2
Procedure: as §1, §2, §3, §4, §5, §6
or the phospholipase A2 assay, compounds are prepared as 1 mg/ml stock solutions in MeOH and diluted appropriately in PBS.

[3] = biological target: T1, porcine pancreatic PLA2; assay: MPLA2 assay: in vitro porcine pancreatic phospholipase A2, mixed micelle design, substrate 2 nM; conditions: for inhibition at 10 µg/mL: dose 10 μ/ml; for inhibition at 20 µg/mL: dose 20 μ/ml
Procedure: as §1, §2, §3, §4, §5, §6, §7

[4] = dose 10 μ/ml, preincubation, read-out: % Inh.
[5] = dose 20 μ/ml, preincubation, read-out: % Inh.
[6] = dose 25 μ/ml, subs. con. 2, read-out: % Inh.
[7] = dose 10 μ/ml, preincubation, read-out: % Inh. Avg.
[8] = preincubation, read-out: IC50 (converted)
[9] = dose 25 μ/ml, subs. con. 2, read-out: % Inh. Avg.

| Compound | inhibition at 25 µg/mL [1] | inhibition at 10 µg/mL [2, 4] | inhibition at 20 µg/mL [2, 5] | inhibition at 25 µg/mL [3, 6] | inhibition at 10 µg/mL [1] | inhibition at 20 µg/mL [1] | inhibition at 10 µg/mL [2, 7] | IC50 [2, 8] | IC50 ([1]; subs. con. 10, read-out: IC50 (converted)) | % Inh. ([3]; dose 25 μ/ml, subs. con. 2) | inhibition at 10 µg/mL ([3]; subs. con. 2, read-out: % Inh.) | inhibition at 20 µg/mL ([3]; subs. con. 2, read-out: % Inh.) | % Inh. [1] | inhibition at 25 µg/mL [3, 9] | IC50 ([3]; subs. con. 2) | IC50 ([2]; IC50, preincubation) | % Inh. ([2]; dose 10 μ/ml, preincubation) | % Inh. ([2]; dose 20 μ/ml, preincubation) | % Inh. Avg. ([3]; dose 25 μ/ml, subs. con. 2) |
| --- | --- | --- | --- | --- | --- | --- | --- | --- | --- | --- | --- | --- | --- | --- | --- | --- | --- | --- | --- |
| CCCCCOCC(COP(=O)([O-])OCC[N+](C)(C)C)OP(=O)(OC)OCCCCC (single isomer, unassigned; more polar) [3,5,8,10-Tetraoxa-4,9 diphosphapentadecan-1-aminium, 4-hydroxy-9-methoxy-N,N,N-trimethyl-7-[(pentyloxy)methyl]-, hydroxide, inner salt, 4,9-dioxide, more polar isomer] | 0% | 5% | 11% | – | – | – | – | – | – | STIM | – | – | – | – | – | – | – | – | – |
| CCCCCCCCCCCCCCCCSCCCOP(=O)([O-])OCC[N+](C)(C)C [3,5-Dioxa-9-thia-4-phosphapentacosan-1-aminium, 4-hydroxy-N,N,N-trimethyl-,hydroxide, inner salt, 4-oxide] | – | 54% | 64% | 74% | – | – | 4.5% | 12.9 µM | – | – | 46% | 83% | STIM | 80% | 16 µM | – | – | – | – |
| CCCCCCCCCCCCCCCCOCC(CC=NO)COP(=O)([O-])OCC[N+](C)(C)C (stereo not drawn) [4-Hydroxy-7-[2-(hydroxyimino)ethyl]-N,N,N-trimethyl-3,5,9-trioxa-4-phosphaoentacosan-1-aminium, hydroxide, inner salt, 4-oxide] | 28% | 56% | 81% | 51% | 0% | 8% | 53% | 10.1 µM | – | – | 19% | 57% | – | 55% | – | – | – | – | – |
| CCCCCCCCCCCCCCCC[S+]([O-])CCCOP(=O)([O-])OCC[N+](C)(C)C (stereo not drawn) [4-Hydroxy-N,N,N-trimethyl-3,5-dioxa-9-thia-4-phosphapentacosan-1-aminium, hydroxide, inner salt, 4.9-dioxide] | 16% | 59% | 82% | 68% | – | – | 61% | 12.5 µM | – | – | – | – | – | 71% | – | – | – | – | – |
| CCCCCCCCCCCCCCCCS(=O)(=O)CCCOP(=O)([O-])OCC[N+](C)(C)C [4-Hydroxy-N,N,N-trimethyl-3,5-dioxa-9-thia-4-phosphapentacosan-1-aminium, hydroxide, inner salt, 4.9.9-trioxide] | 24% | 65% | 88% | – | 0% | 19% | 69% | 9.54 µM | 121 µM | – | 24% | 62% | – | – | 37.2 µM | – | – | – | – |
| CCCCCCCCCCCCCCCCOCC(COP(=O)([O-])OCC[N+](C)(C)C)COP(=O)(Oc1ccccc1)Oc1ccccc1 (stereo not drawn) [4-[(Hexadecyloxy)methyl]-7-hydroxy-N,N,N-trimethyl-1,1-diphenoxy-2.6.8 trioxa-1.7-diophosphadecan-10-aminium, hydroxide, inner salt, 1,7-dioxide] | – | – | – | – | – | – | – | – | – | 62% and 97% | – | – | 33% | – | – | 6.59 µM | 75% | 85% | 79% |
| CCCCCCCCCCCCCCCCOCC(COP(=O)([O-])OCC[N+](C)(C)C)CB(O)O (stereo not drawn) [7-(Boronomethyl)-4-hydroxy-N,N,N-trimethyl-3,5,9-trioxa-4-phosphapentacosan-1-aminium, hydroxide, inner salt, 4-oxide] | 9% | 57% | 77% | – | – | – | – | 10.7 µM | – | – | – | – | – | 44% | – | – | – | – | – |

Continued, in another order:

| inhibition at 25 µg/mL [1] | inhibition at 10 µg/mL [2, 4] | inhibition at 20 µg/mL [2, 5] | inhibition at 25 µg/mL [3, 6] | inhibition at 10 µg/mL [1] | inhibition at 20 µg/mL [1] | inhibition at 10 µg/mL [2, 7] | IC50 [2, 8] | IC50 ([1]; subs. con. 10, read-out: IC50 (converted)) | Compound | % Inh. ([3]; dose 25 μ/ml, subs. con. 2) | inhibition at 10 µg/mL ([3]; subs. con. 2, read-out: % Inh.) | inhibition at 20 µg/mL ([3]; subs. con. 2, read-out: % Inh.) | % Inh. [1] | inhibition at 25 µg/mL [3, 9] | IC50 ([3]; subs. con. 2) | IC50 ([2]; IC50, preincubation) | % Inh. ([2]; dose 10 μ/ml, preincubation) | % Inh. ([2]; dose 20 μ/ml, preincubation) | % Inh. Avg. ([3]; dose 25 μ/ml, subs. con. 2) |
| --- | --- | --- | --- | --- | --- | --- | --- | --- | --- | --- | --- | --- | --- | --- | --- | --- | --- | --- | --- |
| 11% | 38% | 38% | 80% | – | – | – | – | – | C=C(CC(COCCCCCCCCCCCCCCCC)COP(=O)([O-])OCC[N+](C)(C)C)C(F)(F)CCCCCCCCCCCCCCCC (stereo not drawn) [3,5,9-Trioxa-4-phosphapentacosan-1-aminium, 7-(3,3-difluoro-2-methylenenonadecyl)-4-hydroxy-N,N,N-trimethyl-, hydroxide, inner salt, 4-oxide] | – | – | – | – | – | – | – | – | – | – |
| 8% | 38% | 41% | 80% | 0% | 9% | – | – | – | CCCCCCCCCCCCCCCCOCC(COP(=O)([O-])OCC[N+](C)(C)C)CC(=O)C(F)(F)CCCCCCCCCCCCCCCC (stereo not drawn) [3,5,9-Trioxa-4-phosphapentacosan-1-aminium, 7-(3,3-difluoro-2-oxononadecyl)-4-hydroxy-N,N,N-trimethyl-, hydroxide, inner salt, 4-oxide] | – | 88% | 89% | – | – | – | – | – | – | – |
| 11% | 45% | 49% | 82% | – | – | – | – | – | CCCCCCCCCCCCCCCCOCC(COP(=O)([O-])OCC[N+](C)(C)C)CC(O)C(F)(F)CCCCCCCCCCCCCCCC (stereo not drawn) [3,5.9-Trioxa-4-phosphapentacosan-1-aminium, 7-(3,3-difluoro-2-hydroxynonadecyl)-4-hydroxy-N,N,N-trimethyl-, hydroxide, inner salt, 4-oxide] | – | – | – | – | – | – | – | – | – | – |
| 0% | 61% | 61% | 25% | – | – | – | 7.1 µM | – | CCCCCCCCCCCCCCCCOCC(COP(=O)([O-])OCC[N+](C)(C)C)CC(=O)C(=O)CCCCCCCCCCCCCCCC (stereo not drawn) [7-(2,3-Dioxononadecyl)-4-hydroxy-N,N,N-trimethyl-3,5,9-trioxa-4-phosphapentacosan-1-aminium, hydroxide, inner salt, 4-oxide] | – | – | – | – | – | – | – | – | – | – |
| 16% | 57% | 60% | 65% | – | – | – | 6.73 µM | – | CCCCCCCCCCCCCCCCC#CCC(COCCCCCCCCCCCCCCCC)COP(=O)([O-])OCC[N+](C)(C)C (stereo not drawn) [7-(2-Nonadecynyl)-4-hydroxy-N,N,N-trimethyl-3,5,9-trioxa-4-phosphapentacosan-1-aminium, hydroxide, inner salt, 4-oxide] | – | – | – | – | – | – | – | – | – | – |
| 19% | 9% | 82% | 80% | – | – | 57% | 2.99 µM | – | CCCCCCCCCCCCCCCCOCC(COP(=O)([O-])OCC[N+](C)(C)C)CS(=O)(=O)CCCCCCCCCCCCCCCC (stereo not drawn) [7-[(Hexadecylsulfonyl)methyl]-4-hydroxy-N,N,N-trimethyl-3,5,9-trioxa-4-phosphapentacosan-1-aminium, hydroxide, inner salt, 4-oxide] | – | – | – | – | 72% | – | – | – | – | – |
